Literature values, collected in patent US6107305A, “Use of pyrazolo [3,4-b] pyridine as cyclin dependent kinase inhibitors” (Bristol-Myers Squibb Company, priority 1998, dated 2000).

What was measured:
apoptosis = details: J. Cell Sci., 108, 2897 (1995)

Row | Structure (SMILES) | synergism with known cytotoxic agents in inducing apoptosis (apoptosis) | effect of sequence of administration with anticancer agents on cytotoxic activity (cytotoxic activity)
1 | Cn1cnc2c(NCc3ccccc3)nc(NCCO)nc21 [olomucine] | act synergistically with known cytotoxic agents in inducing apoptosis | 
2 | CN1CC[C@H](c2c(O)cc(O)c3c(=O)cc(-c4ccccc4Cl)oc23)[C@H](O)C1 [flavopiridol] |  | affected by the sequence of administration with anticancer agents
